Assay results published in patent US4454291A, “N-(2-Substituted-1-oxoalkyl)-2,3-dihydro-1H-indole-2-carboxylic acid derivatives” (American Home Products Corporation, priority 1982, dated 1984).
Counter-ions that a name gives are not always drawn. Square brackets hold non-standard residues; d marks the D form. Ends that are not written are not given here. pGlu = O=C1CC[C@@H](C(=O)O)N1

Experiments:
hypertension [1] = conditions: cited from earlier work
[2] = tested on: angiotensin converting enzyme; conditions: cited from earlier work
[3] = target: T1, angiotensin converting enzyme (Oryctolagus cuniculus, UniProt P12822); experiment: In vitro assay for angiotensin converting enzyme inhibition utilizing rabbit lung extract (Cushman et al.), hippuryl-L-histidyl-L-leucine substrate; assay type: biochemical
T1 construct: utilizing the rabbit lung extract; from tissue; host or cells: rabbit lung extract
T1 sequence (P12822 34-1310): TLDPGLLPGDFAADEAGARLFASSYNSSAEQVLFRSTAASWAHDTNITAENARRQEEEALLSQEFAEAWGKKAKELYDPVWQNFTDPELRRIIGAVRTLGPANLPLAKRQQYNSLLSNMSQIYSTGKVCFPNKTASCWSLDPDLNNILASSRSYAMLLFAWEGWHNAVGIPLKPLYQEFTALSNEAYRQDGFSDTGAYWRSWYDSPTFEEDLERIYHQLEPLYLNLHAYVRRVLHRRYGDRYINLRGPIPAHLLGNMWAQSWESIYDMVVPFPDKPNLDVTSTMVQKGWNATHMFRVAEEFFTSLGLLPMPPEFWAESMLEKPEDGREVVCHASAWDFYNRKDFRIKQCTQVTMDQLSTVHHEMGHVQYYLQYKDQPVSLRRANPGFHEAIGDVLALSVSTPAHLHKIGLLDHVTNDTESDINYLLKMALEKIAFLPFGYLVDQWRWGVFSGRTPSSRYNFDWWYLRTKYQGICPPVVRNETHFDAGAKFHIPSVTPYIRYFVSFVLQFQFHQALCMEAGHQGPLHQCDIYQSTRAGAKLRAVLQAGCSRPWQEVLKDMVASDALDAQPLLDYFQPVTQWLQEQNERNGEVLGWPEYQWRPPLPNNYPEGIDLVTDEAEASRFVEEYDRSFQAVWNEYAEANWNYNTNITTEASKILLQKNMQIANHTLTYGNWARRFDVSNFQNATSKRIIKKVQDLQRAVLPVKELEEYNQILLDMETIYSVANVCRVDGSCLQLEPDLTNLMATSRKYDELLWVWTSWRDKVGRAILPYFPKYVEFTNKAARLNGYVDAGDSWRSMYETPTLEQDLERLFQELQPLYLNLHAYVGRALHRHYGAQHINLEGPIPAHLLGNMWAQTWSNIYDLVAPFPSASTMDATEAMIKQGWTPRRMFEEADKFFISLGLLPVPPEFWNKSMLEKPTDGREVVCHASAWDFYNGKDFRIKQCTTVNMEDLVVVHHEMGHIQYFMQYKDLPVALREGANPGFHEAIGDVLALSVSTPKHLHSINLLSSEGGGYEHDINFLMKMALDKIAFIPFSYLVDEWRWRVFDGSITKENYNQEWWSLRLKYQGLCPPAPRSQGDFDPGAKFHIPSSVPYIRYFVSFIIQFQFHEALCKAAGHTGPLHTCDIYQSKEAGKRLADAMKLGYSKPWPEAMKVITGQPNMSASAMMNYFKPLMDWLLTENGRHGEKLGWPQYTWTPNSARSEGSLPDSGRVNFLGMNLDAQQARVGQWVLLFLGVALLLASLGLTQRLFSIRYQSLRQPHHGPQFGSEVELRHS
Procedure: The angiotensin converting enzyme (ACE) inhibitory property of the compounds is measured in vitro and in vivo. The in vitro assay utilizes rabbit lung extract and a specific tripeptide substrate, hippuryl-L-histidyl-L-leucine being preferred, and follows the method of Cushman et al., Biochem. Pharmacol., 20, 1637-1648 (1971).
In the in vitro assay for angiotensin converting enzyme inhibition utilizing the rabbit lung extract according to the procedure of Cushman et al., Biochem. Pharmacol., 20, 1637-1648 (1971), the following results were obtained: […]

[4] = tested on: vasopressor action of Angiotensin I; experiment: In vivo ACE inhibitory activity in the conscious normotensive rat: angiotensin I vasopressor response (Rubin et al.); set-up: species or system rat (Sprague-Dawley, male; conditions: oral, 1 mg/kg, 2 hours after administration
Procedure: The in vivo ACE inhibitory activity of the compounds is measured according to the procedure described in Rubin et al., J. Pharmacol. Exp. Ther., 204, 271-280 (1978), which utilizes the conscious normotensive tat as a subject. In this procedure, the jugular vein and carotid artery cannulae are placed in an etheranesthetized, normotensive, male, Sprague-Dawley rat for injection or oral dosage of compounds and direct recording of systemic arterial pressure, respectively. The blood pressure responses to I. V. injections of angiotensin I (500 ng/kg.), angiotensin II (100 ng/kg.) and bradykinin (10 μg/kg.) are recorded and compared with identical doses administered at various time intervals after oral dosing of a prospective angiotensin converting enzyme inhibitor. An angiotensin converting enzyme inhibitor would not be expected necessarily to lower arterial pressure in the normotensive rat, but would be expected to block angiotensin I pressor responses without grossly altering angiotensin II responses. Additionally,the vasodepressor response to bradykinin would be expected to be augmented since angiotensin converting enzyme is known to inactivate bradykinin normally.

[5] = tested on: spontaneously hypertensive rat; experiment: Anti-hypertensive effect in the spontaneously hypertensive rat (systolic pressure, indirect caudal plethysmograph); assay type: in vivo, male); conditions: oral, 4 subjects
Procedure: The anti-hypertensive effect of the compounds of the invention is measured in the spontaneously hypertensive rat. In this procedure systolic pressure of male spontaneously hypertensive rats is measured by an indirect technique using the Decker Caudal Plethysmograph or other appropriate sensor. Groups usually consist of 4 or more rats. Drugs are usually administered orally. Pressures are usually read prior to drug administration and at 1.5, 4 and 24 hours thereafter. This schedule may be altered depending upon the behavior of the drug.
This procedure measures the hypotensive effect of the subject compounds in a hypertensive subject using a single dose and measuring the response over a 24 hour period. When administered orally according to this procedure, compounds of the invention produced a significant decrease in blood pressures in doses of 1-50 mg/kg. When used to treat hypertension in warm-blooded animals doses of less than 15 mg/kg./day would be utilized, and preferably doses of less than 5 mg/kg./day. Such effective treatment doses would generally be administered in long-term antihypertensive therapy.

hypertension [6] = conditions: humans with certain forms of hypertension; cited from earlier work

| IC50 [3] [nM] | Compound | oral activity as an anti-hypertensive agent (hypertension [1]) | potency as inhibitors of angiotensin converting enzyme [2] | also measured |
| --- | --- | --- | --- | --- |
| – | C[C@H](CS)C(=O)N1CCCC1C(=O)O (stereo in doubt) [D-3-mercapto-2methylpropanoyl-L-proline] | effective when administered orally | – | effectiveness among the proline derivatives (hypertension [1]; in vivo): most effective |
| – | Pyr-Lys-Trp-Ala-Pro ([pGlu]KWAP) [BPP5a] | – | most potent | – |
| 3100 | C[C@H](N)C(=O)N1c2ccccc2C[C@H]1C(=O)O [Example 54, (S)-1-[(S)-2-Amino-Oxopropyl]-2,3-Dihydro-1H-Indole-2-Carboxylic Acid] | – | – | – |
| 118 | CCOC(=O)[C@H](CCc1ccccc1)N[C@@H](C)C(=O)N1c2ccccc2C[C@H]1C(=O)O.O=C(O)/C=C\C(=O)O [Example 55, (-)-(S)-1-[(2S)-2-[[(1S)-1-(Ethoxycarbonyl)-3-Phenylpropyl]Amino]-1-Oxopropyl]-2,3-Dihydro-1H-Indole-2-Carboxylic Acid, Maleate] | – | – | inhibition of the vasopressor action of Angiotensin I [4]: 46%; Reduction of Systolic BP ([5]; 2.5 mg/kg): -13 mm. Hg.; Reduction of Systolic BP ([5]; 5.0 mg/kg): -23 mm. Hg.; Reduction of Systolic BP ([5]; 10.0 mg/kg): -33 mm. Hg. |
| – | Pyr-Trp-Pro-Arg-Pro-Gln-Ile-Pro-Pro (WPRPQIPP; N-terminal pyroglutamate; printed: Trp-Pro-Arg-Pro-Gln-Ile-Pro-Pro) [BPP9a] | not orally active | most potent | anti-hypertensive effect in clinical studies (hypertension [6]): effective anti-hypertensive agent |
| 900 | CCOC(=O)[C@@H](CCc1ccccc1)N[C@@H](C)C(=O)N1c2ccccc2C[C@H]1C(=O)O [Example 56, (-)-(S)-1-[(2S)-2-[[(1R)-1-(Ethoxycarbonyl)-3-Phenylpropyl]Amino]-1-Oxopropyl]-2,3-Dihydro-1H-Indole-2-Carboxylic Acid, Maleate] | – | – | – |
